A short description of assay [1]: DRUGMATRIX: Interleukin IL-1 radioligand binding (ligand: [125I] interleukin 1beta). The assay is classed as cell membranes, Membrane. To be noted: nih3t3; Not Active = under 50% inhibition at 10 µM.
Assay [2] is described as follows: DRUGMATRIX: GABAA, Chloride Channel, TBOB radioligand binding (ligand: [3H] TBOB). The class given is cell membranes, Rattus norvegicus, Wistar, Cerebral cortex, Membrane. To be noted: Not Active = under 50% inhibition at 10 µM.
A further assay deals with T1, Glucocorticoid receptor (Homo sapiens, UniProt P04150).
T1 sequence (P04150 whole entry): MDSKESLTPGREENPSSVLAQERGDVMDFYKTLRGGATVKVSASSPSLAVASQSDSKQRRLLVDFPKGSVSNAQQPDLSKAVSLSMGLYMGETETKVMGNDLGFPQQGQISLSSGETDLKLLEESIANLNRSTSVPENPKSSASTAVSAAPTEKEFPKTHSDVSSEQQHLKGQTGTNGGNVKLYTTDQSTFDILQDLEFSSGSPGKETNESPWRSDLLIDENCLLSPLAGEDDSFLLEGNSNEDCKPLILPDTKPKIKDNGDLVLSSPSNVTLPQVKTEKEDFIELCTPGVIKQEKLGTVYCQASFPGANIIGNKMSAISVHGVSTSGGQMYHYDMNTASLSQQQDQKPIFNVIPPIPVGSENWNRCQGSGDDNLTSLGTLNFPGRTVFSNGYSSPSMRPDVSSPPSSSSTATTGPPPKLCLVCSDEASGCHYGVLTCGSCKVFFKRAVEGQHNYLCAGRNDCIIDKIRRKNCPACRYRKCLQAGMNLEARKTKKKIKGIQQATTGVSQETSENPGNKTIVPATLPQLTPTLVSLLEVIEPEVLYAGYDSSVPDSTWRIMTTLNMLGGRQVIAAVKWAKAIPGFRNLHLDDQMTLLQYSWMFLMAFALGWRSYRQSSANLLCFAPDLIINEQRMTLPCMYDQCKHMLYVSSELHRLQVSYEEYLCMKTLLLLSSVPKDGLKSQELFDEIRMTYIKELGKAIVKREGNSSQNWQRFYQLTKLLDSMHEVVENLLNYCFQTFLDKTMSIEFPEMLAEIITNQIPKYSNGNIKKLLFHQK
The following applies: hela s3.

The nature of assay [3]: DRUGMATRIX: Calcium Channel Type L, Benzothiazepine radioligand binding (ligand: [3H] Diltiazem). The assay is classed as cell membranes, Rattus norvegicus, Wistar, Brain, Membrane. The following applies: Not Active = under 50% inhibition at 10 µM.
The nature of assay [4]: DRUGMATRIX: Tumor Necrosis Factor (TNF), Non-Selective radioligand binding (ligand: [125I] TNF-alpha). The class given is cell membranes, Membrane. The following applies: u-937; Not Active = under 50% inhibition at 10 µM.
In another assay the target is T2, Androgen receptor (Rattus norvegicus, UniProt P15207). Note: in other assays of this panel Not Active means under 50% inhibition at 10 µM.
T2 sequence (P15207 whole entry): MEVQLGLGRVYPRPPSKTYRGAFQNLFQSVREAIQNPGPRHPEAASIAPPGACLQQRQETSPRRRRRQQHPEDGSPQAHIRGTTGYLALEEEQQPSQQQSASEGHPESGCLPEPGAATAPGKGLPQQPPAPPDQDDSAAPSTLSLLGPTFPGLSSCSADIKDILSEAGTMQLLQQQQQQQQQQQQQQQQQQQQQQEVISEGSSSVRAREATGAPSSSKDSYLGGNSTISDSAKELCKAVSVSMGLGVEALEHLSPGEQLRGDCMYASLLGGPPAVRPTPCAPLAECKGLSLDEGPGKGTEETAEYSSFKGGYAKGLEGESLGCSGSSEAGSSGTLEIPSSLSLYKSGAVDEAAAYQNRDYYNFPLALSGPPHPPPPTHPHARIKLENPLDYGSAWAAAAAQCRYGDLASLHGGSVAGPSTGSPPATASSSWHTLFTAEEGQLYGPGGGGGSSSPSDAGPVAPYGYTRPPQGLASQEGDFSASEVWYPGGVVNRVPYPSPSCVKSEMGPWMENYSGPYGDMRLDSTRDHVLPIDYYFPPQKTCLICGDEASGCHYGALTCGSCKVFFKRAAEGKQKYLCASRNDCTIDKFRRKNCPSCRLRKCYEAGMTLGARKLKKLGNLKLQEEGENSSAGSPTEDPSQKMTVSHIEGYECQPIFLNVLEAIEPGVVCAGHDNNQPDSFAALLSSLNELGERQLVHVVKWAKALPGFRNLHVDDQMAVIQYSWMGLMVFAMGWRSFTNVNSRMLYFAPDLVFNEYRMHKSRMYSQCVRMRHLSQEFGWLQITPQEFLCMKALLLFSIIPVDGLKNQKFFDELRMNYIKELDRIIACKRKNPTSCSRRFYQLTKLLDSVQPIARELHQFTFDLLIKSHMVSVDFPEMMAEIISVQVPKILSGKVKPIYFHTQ

A short description of assay [5]: DRUGMATRIX: Purinergic P2X radioligand binding (ligand: [3H] alpha, beta-Methylene-ATP). The class given is cell membranes, Oryctolagus cuniculus, New Zealand albino, Urinary bladder, Membrane. To be noted: Not Active = under 50% inhibition at 10 µM.
A further assay concerns the target Cytochrome P450 2C9 (Homo sapiens, UniProt P11712). Note: in other assays of this panel Not Active means under 50% inhibition at 10 µM.
For the next assay, the target named is Cytochrome P450 2D6 (Homo sapiens, UniProt P10635). Note: in other assays of this panel Not Active means under 50% inhibition at 10 µM.
Cytochrome P450 2D6, sequence (P10635 whole entry): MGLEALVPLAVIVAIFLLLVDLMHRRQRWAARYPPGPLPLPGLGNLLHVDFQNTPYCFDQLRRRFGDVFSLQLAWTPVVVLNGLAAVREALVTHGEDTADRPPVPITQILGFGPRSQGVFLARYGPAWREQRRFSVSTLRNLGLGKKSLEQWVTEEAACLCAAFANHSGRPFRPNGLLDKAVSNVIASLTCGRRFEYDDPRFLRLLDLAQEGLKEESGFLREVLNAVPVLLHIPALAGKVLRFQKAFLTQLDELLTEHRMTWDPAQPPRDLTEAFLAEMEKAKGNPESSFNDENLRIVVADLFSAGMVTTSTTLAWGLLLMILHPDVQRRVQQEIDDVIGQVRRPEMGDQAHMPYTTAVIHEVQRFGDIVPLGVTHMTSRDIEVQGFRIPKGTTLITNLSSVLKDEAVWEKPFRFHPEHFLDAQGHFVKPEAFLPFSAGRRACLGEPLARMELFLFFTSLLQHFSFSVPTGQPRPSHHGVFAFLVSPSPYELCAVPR
The target in the next assay is T3, Cytochrome P450 1A2 (Homo sapiens, UniProt P05177). Note: in other assays of this panel Not Active means under 50% inhibition at 10 µM.
T3 sequence (P05177 whole entry): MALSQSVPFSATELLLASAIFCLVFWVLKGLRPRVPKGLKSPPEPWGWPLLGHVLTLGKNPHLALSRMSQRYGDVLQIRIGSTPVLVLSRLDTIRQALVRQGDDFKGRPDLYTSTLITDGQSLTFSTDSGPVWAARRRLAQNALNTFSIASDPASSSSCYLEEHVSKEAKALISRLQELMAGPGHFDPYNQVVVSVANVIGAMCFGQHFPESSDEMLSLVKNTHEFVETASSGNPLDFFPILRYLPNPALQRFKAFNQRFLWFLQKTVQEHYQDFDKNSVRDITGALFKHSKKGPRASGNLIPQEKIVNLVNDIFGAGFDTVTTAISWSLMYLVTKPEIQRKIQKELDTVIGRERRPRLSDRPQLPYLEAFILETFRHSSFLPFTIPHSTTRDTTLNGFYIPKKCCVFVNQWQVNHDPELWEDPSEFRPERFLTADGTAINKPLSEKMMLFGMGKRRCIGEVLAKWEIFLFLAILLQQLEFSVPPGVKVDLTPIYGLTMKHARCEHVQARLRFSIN

By IC50 is commonly meant the concentration that inhibits the measured activity by half. The term Ki denotes the equilibrium dissociation constant of an inhibitor or competing ligand from its target.

Cytochrome P450 2C9, sequence (P11712 whole entry): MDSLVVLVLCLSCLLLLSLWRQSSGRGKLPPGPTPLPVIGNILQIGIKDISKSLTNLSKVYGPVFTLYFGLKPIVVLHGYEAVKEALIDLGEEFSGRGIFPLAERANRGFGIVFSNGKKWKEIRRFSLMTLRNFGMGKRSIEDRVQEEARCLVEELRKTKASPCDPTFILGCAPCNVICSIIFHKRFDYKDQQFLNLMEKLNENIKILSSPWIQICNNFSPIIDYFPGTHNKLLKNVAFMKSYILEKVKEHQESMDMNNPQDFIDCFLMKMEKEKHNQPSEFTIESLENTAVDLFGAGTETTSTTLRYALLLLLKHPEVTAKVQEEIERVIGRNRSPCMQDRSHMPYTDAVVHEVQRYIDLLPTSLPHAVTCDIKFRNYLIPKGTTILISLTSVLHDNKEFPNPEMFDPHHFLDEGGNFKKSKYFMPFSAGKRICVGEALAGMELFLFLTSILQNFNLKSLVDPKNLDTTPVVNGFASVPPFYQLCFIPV

Regarding `O=C(O)COc1ccc(C(=O)c2cccs2)c(Cl)c1Cl`, the IC50 result (in assay [1]; in [2]; at Glucocorticoid receptor; in assay [3]; in [4]; at Androgen receptor) was “Not Active” throughout. In addition, in assay [5], the IC50 entry is given as “Not Active”. Moreover, the Ki entry in [1], in assay [2], in assay [3], in assay [4] and in [5] was “Not Active” each time.
For the molecule `Clc1ccc(COC(Cn2ccnc2)c2ccc(Cl)cc2Cl)c(Cl)c1` (centres undefined) [MICONAZOLE], the IC50 at Cytochrome P450 2C9 was 200 nM; against Glucocorticoid receptor it was “Not Active”; at Cytochrome P450 2D6 it was 1000 nM.
For the molecule `Oc1ccc2c3c1O[C@H]1[C@@H](O)CC[C@@]4(O)[C@@H](C2)N(CC2CCC2)CC[C@]314` [NALBUPHINE], the IC50 result on Glucocorticoid receptor and on Androgen receptor was “Not Active” each time.
For the molecule `C[S+]([O-])c1ccc(-c2nc(-c3ccncc3)c(-c3ccc(F)cc3)[nH]2)cc1` (centres undefined) [SB-203580], the IC50 against Cytochrome P450 2C9 is 1000 nM; at Glucocorticoid receptor, “Not Active”; on Cytochrome P450 1A2, 2000 nM; on Cytochrome P450 2D6, 2000 nM; at Androgen receptor, “Not Active”.
For the molecule `CCCCCCCCNC(C)C(O)c1ccc(SC(C)C)cc1` (centres undefined) [SULOCTIDIL], the IC50 result in [2] was “Not Active”; on Glucocorticoid receptor it was “Not Active”; in assay [3] (read-out: IC50) it was 171 nM; against Androgen receptor it was “Not Active”; in assay [5], “Not Active”. Besides, the Ki result was “Not Active” in assay [2], 152 nM in assay [3] (read-out: Ki) and “Not Active” in [5].
`Cc1ccc(C(=O)c2ccc(CC(=O)O)n2C)cc1` [TOLMETIN]: the IC50 entry (in assay [1]; in assay [2]; in assay [3]; in [4]; against Androgen receptor; in assay [5]) was “Not Active” in each case. The Ki result in assay [1], in assay [2], in assay [3], in assay [4] and in assay [5] was “Not Active” throughout.
For the molecule TRANSPLATIN, the IC50 entry (in assay [1]; in [2]; against Glucocorticoid receptor; in assay [3]; in assay [4]; on Androgen receptor) was “Not Active” throughout. Also, the IC50 entry in [5] is recorded as “Not Active”. Besides, the Ki entry (in [1]; in [2]; at Glucocorticoid receptor; in [3]; in assay [4]; at Androgen receptor) was “Not Active” in each case. In [5], the Ki entry was “Not Active”.
Turning to ZIRCONIUM(IV) CHLORIDE, the IC50 entry (in [1]; in [2]; on Glucocorticoid receptor; in assay [3]; in [4]; against Androgen receptor) was “Not Active” throughout. Further, the IC50 entry in assay [5] is reported as “Not Active”. For the same molecule, the Ki entry (in assay [1]; in assay [2]; at Glucocorticoid receptor; in assay [3]; in assay [4]; on Androgen receptor) was “Not Active” each time. The Ki result in assay [5] was “Not Active”.
